Experimental data as given in patent US9642839B2, “Substance having tyrosine kinase inhibitory activity and preparation method and use thereof” (Institute of Radiation Medicine, China Academy of Military …, priority 2013, dated 2017).

Assays:
A375 cells = assay: In vitro antitumor activity, MTS cell proliferation; type: cell-based; conditions: Homo sapiens, A-375, A375, skin cancer, 72 hours
Method: (§1) Method: 14 cell lines (MKN-45 cells, MHCC97-L cells, MHCC97-H cells, HLE cells, HepG2 cells, 7721 cells, L02 cells, A375 cells, H460 cells, A549 cells, SK-N-SH cells, MCF-7 cells, K562 cells, and Ba/F3-Tpr-Met cells (pre-B cells which are malignantly transformed by the c-Met constitutive active mutant Tpr-Met) were seeded into 96-well plate at 1×10^4 cells/well, and each well was added with 150 μl DMEM medium (purchased from Invitrogen) containing 10% fetal bovine serum (purchased from Hyclone). When cell adherent was observed, different concentrations of 2-indolone derivatives (concentrations at 0.1-10 μM) were added, in addition to the negative control (vehicle control group) and blank control (medium group). After culture at 37° C., 5% CO2 for 72 hours, MTS reagent (Promega Corporation) were added for further culture for 2-4 h.

Ba/F3-Tpr-Met cells = assay: as above; type: cell-based; conditions: pre-B cell, 72 hours
Method: as §1

H460 cells = assay: as above; type: cell-based; conditions: Homo sapiens, NCI-H460, H460, lung cancer, 72 hours
Method: as §1

HLE cells = assay: as above; type: cell-based; conditions: Homo sapiens, hepatocellular cancer, 72 hours
Method: as §1

HepG2 cells [1] = assay: as above; type: cell-based; conditions: Homo sapiens, HepG2, hepatocellular cancer, 72 hours
Method: as §1

K562 cells = assay: as above; type: cell-based; conditions: Homo sapiens, K562, leukemia, 72 hours
Method: as §1

MCF-7 cells = assay: as above; type: cell-based; conditions: Homo sapiens, MCF7, MCF-7, breast cancer, 72 hours
Method: as §1

MHCC97-L cells = assay: as above; type: cell-based; conditions: MHCC97L, hepatocellular cancer, 72 hours
Method: as §1

MKN-45 cells = assay: as above; type: cell-based; conditions: Homo sapiens, MKN-45, gastric cancer, 72 hours
Method: as §1

SK-N-SH cells = assay: as above; type: cell-based; conditions: Homo sapiens, neuroblastoma, 72 hours
Method: as §1

A549 cells = assay: as above; type: cell-based, human; conditions: Homo sapiens, A549, lung cancer, 72 hours
Method: as §1

MHCC97-H cells = assay: as above; type: cell-based, human; conditions: Homo sapiens, MHCC97H, hepatocellular cancer, 72 hours
Method: as §1

HepG2 cells [2] = assay: Subcutaneous tumor-bearing nude mice model; type: in vivo; conditions: HepG2 s.c. nude mice; 16 mg/kg intraperitoneal, once every 24 h, 6 administrations; by tumor weight
From the text: (§2) The cells were washed with PBS twice, and suspended.

NCI-H460 cells = assay: Subcutaneous tumor-bearing nude mice model; type: in vivo; conditions: NCI-H460 s.c. nude mice; 16 mg/kg intraperitoneal, once every 24 h, 6 administrations; by tumor weight
From the text: as §2

lung cancer cell A549 = assay: Lung orthotopic tumor formation model; type: in vivo, BALB/c nude mice; conditions: for Tumor inhibition rate / Weight of tumor: 6 administrations; for Average weight (X ± S), End: animal weight at end, in g (unit assumed)
Method: The medium was changed once every 1-2 days. […] The subcultured tumor cells were digested into suspensions under a sterile condition, and orthotopically injected into BALB/c nude mice at the left chest between the third and fourth ribs (3.0×10^6 cells/mouse, 30 μl). The inoculation needle entered into the pulmonary lobe at a depth of about 5 mm. The inoculation day is labeled as DO. Seven days later, animals were weighed and randomized into groups based on body weight.
Method: Animal models were randomized into three groups, vehicle control group (DMSO injected intraperitoneally), intraperitoneal low dose group (18 mg/kg), and intraperitoneal high dose group (36 mg/kg). The animals received treatment once every 24 hours. After 6 times of successive administration, animals were kept for another 30 days. At the end of this experiment, animals were sacrificed, and dissected to obtain lungs. Tumor was dissected and weighed.

TrkB = TrkB (Homo sapiens, UniProt Q16620); assay: Western blot, BDNF-induced TrkB phosphorylation and signaling pathway in SK-N-SH cells; type: cell-based; conditions: 0.05-1.0 μM, 200 ng/ml BDNF
Method: The medium was changed once every 1-2 days. […] 500 ng/mL NGF or 200 ng/ml BDNF (if not added, marked as “-”) were added to stimulate the cells for 5 min. After cell lysis, total protein was extracted. Western blot assay was carried out with TrkA phosphorylated and non-phosphorylated (p-TrkA) antibodies, TrkB phosphorylated and non-phosphorylated (p-TrkB) antibodies, ERK phosphorylated and non-phosphorylated (p-ERK) antibodies, Akt phosphorylated and non-phosphorylated (p-Akt) antibodies, and GAPDH antibody.

[3] = test system: neuroblastoma SK-N-SH cells; assay: Subcutaneous SK-N-SH tumor-bearing nude mouse model; type: in vivo, nu/nu female mice; conditions: SK-N-SH s.c. nude mice, once every 24 h, 6 administrations
From the text: Model establishment: nu/nu female mice of 6-8 weeks old were fed under an SPF condition in an animal facility for one week, and then each of them was inoculated with 5×10^6 neuroblastoma SK-N-SH cells (purchased from ATCC) subcutaneously in left flank. Tumor volume was monitored every day after inoculation. Once the size reached ˜100 mm^3, mice were divided into groups.
Each group included 10 animals.

[4] = intraperitoneal high dose 36 mg/kg
[5] = intraperitoneal low dose 18 mg/kg

TrkB, sequence (Q16620 32-822, species assumed): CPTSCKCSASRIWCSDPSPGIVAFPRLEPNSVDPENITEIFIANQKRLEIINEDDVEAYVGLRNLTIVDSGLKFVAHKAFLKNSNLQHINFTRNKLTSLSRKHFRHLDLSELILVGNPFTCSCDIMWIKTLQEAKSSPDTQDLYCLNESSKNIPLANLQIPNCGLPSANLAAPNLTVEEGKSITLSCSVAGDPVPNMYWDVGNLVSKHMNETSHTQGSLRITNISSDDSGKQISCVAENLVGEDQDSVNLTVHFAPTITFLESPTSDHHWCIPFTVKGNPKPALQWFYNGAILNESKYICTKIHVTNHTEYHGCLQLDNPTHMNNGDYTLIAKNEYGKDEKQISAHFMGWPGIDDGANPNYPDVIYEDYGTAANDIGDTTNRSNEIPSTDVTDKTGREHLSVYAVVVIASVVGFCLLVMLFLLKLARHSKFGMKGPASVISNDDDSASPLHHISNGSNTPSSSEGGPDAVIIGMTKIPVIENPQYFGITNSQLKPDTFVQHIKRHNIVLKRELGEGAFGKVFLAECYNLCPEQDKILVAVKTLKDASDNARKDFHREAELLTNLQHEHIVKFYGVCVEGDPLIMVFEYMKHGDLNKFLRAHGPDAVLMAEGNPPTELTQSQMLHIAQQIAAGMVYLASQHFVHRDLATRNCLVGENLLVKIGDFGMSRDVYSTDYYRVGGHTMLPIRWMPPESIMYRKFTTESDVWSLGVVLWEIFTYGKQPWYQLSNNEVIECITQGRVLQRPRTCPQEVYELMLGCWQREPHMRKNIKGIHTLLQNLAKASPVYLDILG

## Cc1ccccc1NS(=O)(=O)c1ccc2c(c1)/C(=C/c1nc3ccccc3[nH]1)C(=O)N2 [Indo 5, 3-(1H-benzimidazol-2-methylene)-5-(2-methylphenylaminosulfo)-2-indolone]
A375 cells
  IC50: 1870 nM
Ba/F3-Tpr-Met cells
  IC50: 4790 nM
H460 cells
  IC50: 1070 nM
HLE cells
  IC50: 5230 nM
HepG2 cells [1]
  IC50: 5660 nM
K562 cells
  IC50: 2580 nM
MCF-7 cells
  IC50: 1280 nM
MHCC97-L cells
  IC50: 1210 nM
MKN-45 cells
  IC50: 1550 nM
SK-N-SH cells
  IC50: 1190 nM
A549 cells
  IC50: 2190 nM
MHCC97-H cells
  IC50: 1030 nM
HepG2 cells [2]
  Tumor inhibition rate: 61%
NCI-H460 cells
  Tumor inhibition rate: 59%
Lung cancer cell A549; [4]
  Tumor inhibition rate: 40.7%
  Weight of tumor: 0.224 ± 0.07 g
  Average weight (X ± S), End: 20.4 ± 0.3
Lung cancer cell A549; [5]
  Tumor inhibition rate: 23.8%
  Weight of tumor: 0.288 ± 0.08 g
  Average weight (X ± S), End: 19.5 ± 0.7
TrkB
  Phosphorylation of TrkB and downstream ERK and Akt: significantly inhibited
[3]; 16 mg/kg gavage
  Tumor inhibition rate: 48%
[3]; 16 mg/kg intraperitoneal
  Tumor inhibition rate: 50%
